Read-outs that look alike come from different tables or passages of the source.
Legend:
Format in all cases: biochemical
myeloperoxidase (MPO) [1] = target: T1, myeloperoxidase (MPO) (Homo sapiens, UniProt P05164); experiment: MPO peroxidation assay (Amplex Red assay); details: MPO peroxidation, 100 mM KPi pH 7.4, ten minute preincubation
T1 sequence (P05164 49-745): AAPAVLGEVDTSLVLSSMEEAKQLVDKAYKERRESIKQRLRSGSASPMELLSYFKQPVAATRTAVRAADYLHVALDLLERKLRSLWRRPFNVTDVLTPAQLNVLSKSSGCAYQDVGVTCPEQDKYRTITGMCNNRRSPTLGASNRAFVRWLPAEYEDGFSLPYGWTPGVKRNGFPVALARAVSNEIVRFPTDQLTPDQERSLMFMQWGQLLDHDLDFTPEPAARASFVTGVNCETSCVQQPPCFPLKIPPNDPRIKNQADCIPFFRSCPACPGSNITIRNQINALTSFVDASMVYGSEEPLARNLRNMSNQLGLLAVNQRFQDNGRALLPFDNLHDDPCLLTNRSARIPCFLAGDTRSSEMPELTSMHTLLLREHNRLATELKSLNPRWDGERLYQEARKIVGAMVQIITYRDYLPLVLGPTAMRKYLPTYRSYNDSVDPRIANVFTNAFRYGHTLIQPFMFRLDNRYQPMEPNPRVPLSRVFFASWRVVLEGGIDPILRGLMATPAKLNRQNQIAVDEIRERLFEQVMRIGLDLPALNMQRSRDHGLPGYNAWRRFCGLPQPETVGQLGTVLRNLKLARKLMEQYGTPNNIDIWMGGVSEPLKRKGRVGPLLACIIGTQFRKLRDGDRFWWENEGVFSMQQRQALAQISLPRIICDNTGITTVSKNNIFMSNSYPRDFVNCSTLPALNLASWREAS
How it was run: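 Enzyme and compound preincubated 10 min at room temperature in 100 mM KPi, pH 7.4. Amplex Red (200 μM) plus H2O2 (10 mM) mixture then added, peroxidase oxidation to fluorescent resorufin followed kinetically. IC50 from slope over 180–540 s, converted to % inhibition and fitted to a four-parameter Hill equation.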

EPX = target: T2, EPX (Homo sapiens, UniProt P11678); experiment: EPX bromination assay
T2 construct: purchased Lee Biosolutions 342-60
Method: (§1) [formula] where A=minimal Y value (activity level of inhibited sample), B=maximal Y value (activity level of uninhibited sample), C=Log IC50, D=Hill Slope, x=concentration of inhibitor. EPX Bromination Assay
EPX bromination activity was measured in 100 mM KPi (pH 7.4) by monitoring the H2O2 catalyzed formation of 3-bromo tyrosine from tyrosine and potassium bromide. […] Enzyme and compound were preincubated for ten minutes at room temperature.
The reaction was allowed to proceed for 15 minutes, at which time it was quenched with 10 μL of 20% TCA. The final concentrations of all components were 0.3 μM EPX, 100 μM tyrosine, […], 5 μM H2O2, 0.1% DMSO, 2.0% TCA.
[formula] where A=minimal Y value (activity level of inhibited sample), B=maximal Y value (activity level of uninhibited sample), C=Log IC50, D=Hill Slope, x=concentration of inhibitor.
The column was maintained at 60° C. Samples were eluted using a gradient of 0%-100% B over 2.5 minutes, followed by equilibration with 100% A for 1 minute where A consisted of 0.1% TFA and B consisted of 90% MeOH/0.1% TFA at a flow rate of 0.6 mL/min.

myeloperoxidase (MPO) [2] = target: T1, myeloperoxidase (MPO); experiment: MPO chlorination assay (APF assay)
Method: [formula] where A=minimal Y value (activity level of inhibited sample), B=maximal Y value (activity level of uninhibited sample), C=Log IC50, D=Hill Slope, x=concentration of inhibitor. MPO Chlorination Assay (APF Assay)
MPO chlorination activity was measured in 100 mM KPi (pH 7.4) by utilizing the non-fluorescent reagent Aminophenyl fluorescein (APF, Invitrogen Cat. #A36003). APF is cleaved by (—OCl) to yield the fluorescent compound fluorescein. […] Enzyme, inhibitor, and chloride were preincubated for ten minutes at room temperature.
After the ten minute preincubation, 25 μL of an APF mixture containing […], 120 mM NaCl and 10 μM H2O2 was added to the plate using the internal dispensing system of a Hammatsu FDSS 6000. […] IC50 values for inhibitors were calculated by taking the slope of the linear portion of the kinetic measurement (20 seconds to ˜80-120 secs).
IC50 values were calculated by determining the slope of the linear portion of the kinetic trace (180-540 secs), and using that calculated slope to determine % inhibition occurring at each concentration of inhibitor using the following equation:
as §1

T2 sequence (P11678 251-715 limits assumed): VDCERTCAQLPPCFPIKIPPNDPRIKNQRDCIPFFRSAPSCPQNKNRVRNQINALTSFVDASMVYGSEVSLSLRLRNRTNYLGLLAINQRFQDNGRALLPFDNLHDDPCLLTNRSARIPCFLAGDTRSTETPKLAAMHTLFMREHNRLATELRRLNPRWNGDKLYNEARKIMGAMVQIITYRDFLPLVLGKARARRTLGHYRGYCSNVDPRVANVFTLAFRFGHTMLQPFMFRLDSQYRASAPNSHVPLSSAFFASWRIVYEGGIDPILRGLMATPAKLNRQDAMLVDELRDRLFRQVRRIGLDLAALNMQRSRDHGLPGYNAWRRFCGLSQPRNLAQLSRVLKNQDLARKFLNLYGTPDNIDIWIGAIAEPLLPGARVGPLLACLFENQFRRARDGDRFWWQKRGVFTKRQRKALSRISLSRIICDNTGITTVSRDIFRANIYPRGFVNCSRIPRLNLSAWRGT
T2 sequence (P11678 140-250 limits assumed): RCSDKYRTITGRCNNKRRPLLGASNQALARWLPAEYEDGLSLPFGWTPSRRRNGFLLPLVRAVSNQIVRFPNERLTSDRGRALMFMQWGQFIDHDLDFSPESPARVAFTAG

Row | IC50 (myeloperoxidase (MPO) [1]; Amplex Red Assay IC50 value) [nM] | IC50 (EPX) [nM] | IC50 (myeloperoxidase (MPO) [2]) [nM] | IC50 (myeloperoxidase (MPO) [1]; read-out: Amplex Red Assay IC50 value) [nM] | IC50 (EPX; EPX bromination, 100 mM KPi pH 7.4, ten minute preincubation, read-out: EPX IC50) [nM] | IC50 (myeloperoxidase (MPO) [2]; MPO chlorination, 100 mM KPi pH 7.4, ten minute preincubation, read-out: APF Assay IC50 value) [nM] | Compound
1 | 10 | 10 | 80 | – | – | – | Nc1cc(OCc2nn(-c3ccccc3)nc2C(F)F)c2nn[nH]c2n1 [Example 55, 7-((5-(Difluoromethyl)-2-phenyl-2H-1,2,3-triazol-4-yl)methoxy)-3H-[1,2,3]triazolo[4,5-b]pyridin-5-amine]
2 | – | – | – | 20 | 40 | 60 | Cn1ncc2c(COc3cc(N)nc4[nH]nnc34)cccc21 [Example 15, 7-((1-Methyl-1H-indazol-4-yl)methoxy)-3H-[1,2,3]triazolo[4,5-b]pyridin-5-amine]

— patent US9920075B2, “Triazolopyridine and triazolopyrimidine inhibitors of myeloperoxidase” (BRISTOL-MYERS SQUIBB COMPANY, priority 2014, dated 2018)
